# Reference: ChEMBL document CHEMBL3259585, “Molecular basis of the selective binding of MDMA enantiomers to the alpha4beta2 nicotinic receptor subtype: synthesis, pharmacological evaluation and mechanistic studies” (Eur J Med Chem, 2014)
# The source made the active and inactive calls. The calls are words filed in the database; no cut-off is given here.
# How the values were obtained:
# Rattus norvegicus = test: In vivo stimulation of [3H]epibatidine binding to nicotinic acetylcholine receptor in rat prefrontal cortex relative to control; assay type: functional
# [1] = molecular target: T1, Neuronal acetylcholine receptor; alpha4/beta2 (Rattus norvegicus, UniProt P09483+P12390); test: Displacement of [3H]epibatidine from alpha4beta2 nAChR in Sprague-Dawley rat brain cortical membrane after 3 hrs; assay type: tissue-based
# [2] = molecular target: T2, Neuronal acetylcholine receptor; alpha4/beta2 (Rattus norvegicus) (UniProt P09483+P12390); test: Stimulation of [3H]epibatidine binding to alpha4beta2 nAChR in rat PC12 cells at 100 uM preincubated for 24 hrs followed by radioligand addition measured after 90 mins by liquid scintillation spectrometric analysis; assay type: cell-based; conditions: PC-12
# [3] = molecular target: T1, Neuronal acetylcholine receptor; alpha4/beta2; test: (§1) Displacement of [3H]epibatidine from alpha4beta2 nAChR in Sprague-Dawley rat brain cortical membrane after 3 hrs by liquid scintillation spectrometric analysis; assay type: tissue-based
# [4] = molecular target: T2, Neuronal acetylcholine receptor; alpha4/beta2 (Rattus norvegicus); test: as §1; assay type: tissue-based
# [5] = molecular target: Sodium-dependent serotonin transporter (Rattus norvegicus, UniProt P31652); test: Displacement of [3H]-citalopram from SERT in Sprague-Dawley rat cortex, striatum and cerebellum-dissected brain after 60 mins by scintillation counting analysis; assay type: tissue-based
# Chain of Sodium-dependent serotonin transporter (P31652 whole entry): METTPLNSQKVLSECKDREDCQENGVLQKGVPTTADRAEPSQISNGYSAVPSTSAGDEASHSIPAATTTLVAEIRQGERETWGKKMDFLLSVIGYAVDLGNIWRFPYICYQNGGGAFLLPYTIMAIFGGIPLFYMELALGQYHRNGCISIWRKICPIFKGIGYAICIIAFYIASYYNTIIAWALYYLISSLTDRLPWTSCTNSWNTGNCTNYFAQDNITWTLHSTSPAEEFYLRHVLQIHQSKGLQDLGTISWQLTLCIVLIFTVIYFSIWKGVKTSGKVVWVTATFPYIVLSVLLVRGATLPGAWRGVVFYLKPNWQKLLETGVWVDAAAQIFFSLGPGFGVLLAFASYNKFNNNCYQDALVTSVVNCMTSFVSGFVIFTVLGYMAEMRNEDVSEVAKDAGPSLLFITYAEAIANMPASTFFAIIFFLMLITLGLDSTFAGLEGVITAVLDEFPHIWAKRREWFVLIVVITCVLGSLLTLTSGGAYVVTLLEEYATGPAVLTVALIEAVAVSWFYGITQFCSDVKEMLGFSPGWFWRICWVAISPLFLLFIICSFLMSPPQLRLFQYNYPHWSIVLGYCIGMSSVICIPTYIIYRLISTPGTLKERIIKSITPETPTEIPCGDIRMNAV
# T1 sequence (P09483 whole entry): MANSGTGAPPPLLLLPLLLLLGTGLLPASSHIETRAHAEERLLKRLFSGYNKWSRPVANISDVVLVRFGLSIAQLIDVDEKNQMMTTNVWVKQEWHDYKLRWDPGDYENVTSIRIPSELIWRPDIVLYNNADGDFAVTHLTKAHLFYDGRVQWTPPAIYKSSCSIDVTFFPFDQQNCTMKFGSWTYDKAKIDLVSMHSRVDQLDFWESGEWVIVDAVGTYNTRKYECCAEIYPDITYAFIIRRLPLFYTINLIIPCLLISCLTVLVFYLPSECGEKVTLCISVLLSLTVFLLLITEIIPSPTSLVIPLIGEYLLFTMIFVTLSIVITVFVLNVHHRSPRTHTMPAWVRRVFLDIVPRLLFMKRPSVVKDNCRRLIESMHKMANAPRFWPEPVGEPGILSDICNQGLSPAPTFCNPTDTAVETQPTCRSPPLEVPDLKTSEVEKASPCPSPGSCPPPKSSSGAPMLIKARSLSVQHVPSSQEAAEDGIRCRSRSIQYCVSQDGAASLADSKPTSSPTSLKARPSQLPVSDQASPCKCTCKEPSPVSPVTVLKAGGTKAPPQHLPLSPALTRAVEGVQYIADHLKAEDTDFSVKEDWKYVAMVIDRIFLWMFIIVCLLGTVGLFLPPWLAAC
# T1 sequence (P12390 whole entry): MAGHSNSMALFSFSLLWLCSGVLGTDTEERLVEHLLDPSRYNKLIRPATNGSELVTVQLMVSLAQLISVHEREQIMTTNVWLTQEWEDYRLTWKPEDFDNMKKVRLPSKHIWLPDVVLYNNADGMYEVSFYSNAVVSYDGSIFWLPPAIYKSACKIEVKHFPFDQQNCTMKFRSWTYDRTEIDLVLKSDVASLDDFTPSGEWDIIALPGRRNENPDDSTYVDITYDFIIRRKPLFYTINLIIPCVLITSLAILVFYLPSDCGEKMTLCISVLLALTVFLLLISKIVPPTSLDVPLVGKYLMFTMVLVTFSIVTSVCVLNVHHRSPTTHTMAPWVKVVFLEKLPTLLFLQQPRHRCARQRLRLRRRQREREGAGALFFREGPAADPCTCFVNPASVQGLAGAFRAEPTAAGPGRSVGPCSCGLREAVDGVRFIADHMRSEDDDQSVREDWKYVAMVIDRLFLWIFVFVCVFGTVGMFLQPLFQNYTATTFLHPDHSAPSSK
SMILES,Activity (Rattus norvegicus),Ki [1],Activity [2],IC50 [3],inhibition [4],Ki [5]
CN1CCC[C@H]1c1cccnc1 [NICOTINE],30%,–,–,–,–,–
CN[C@H](C)Cc1ccc2c(c1)OCO2,–,0.63 µM,Active,13.4 µM,Dose-dependent effect,24.5 µM
CN[C@@H](C)Cc1ccc2c(c1)OCO2,–,8.21 µM,inactive,173 µM,Dose-dependent effect,–
CNC(C)Cc1ccc2c(c1)OCO2 (racemic) [MIDOMAFETAMINE],35%,1.44 µM,Active,30.4 µM,Dose-dependent effect,–
